Test results from PubChem BioAssay (NCI).
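In this assay, cells in 96-well plates receive the compound at five concentrations for 48 hours. Endpoints are linearly interpolated between the surrounding concentrations. TGI denotes the concentration required for complete inhibition of growth.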

Experiments:
SNB-78 CNS = assay: NCI tumour cell line growth inhibition, 48 h
DMS 273 small cell lung = assay: NCI tumour cell line growth inhibition, 48 h

| Compound | TGI (SNB-78 CNS) [µM] | TGI (DMS 273 small cell lung) [µM] |
| --- | --- | --- |
| COc1cc(OC)cc(C(=O)Cc2c(C(=O)c3ccccc3)c3ccccc3n2C(=O)c2ccccc2)c1 | > 100 | > 100 |
| CCCCC(N)CSSCC(N)CCCC (stereo not given) | 98.5 | 45.6 |
| COc1ccc(NS(=O)(=O)c2ccc(N=C3C=C(Nc4ccc(S(=O)(=O)Nc5ccc(OC)nn5)cc4)C(=O)c4ccccc43)cc2)nn1 | > 100 | 28.4 |
| COc1ccc(-c2nc(SC)n(C3OC(COC(C)=O)C(OC(C)=O)C(OC(C)=O)C3OC(C)=O)c(=O)c2C#N)cc1 (stereo not given) | 57.8 | – |
| CN=C(N)NC | > 100 | > 100 |
| CCOc1ncnc2ccc(Cl)c(I)c12 | – | > 100 |
